This is an account of results in patent US20070275984A1, “Novel Thieno-Pyridine and Thieno-Pyrimidine Derivatives and Their Use as Positive Allosteric Modulators of Mglur2-Receptors” (JANSSEN PHARMACEUTICA N.V., priority 2004, published 2007).

As usually defined, the melting point is the temperature of the solid-liquid transition.

`CCc1cc2c(NCc3ccccc3)ncnc2s1` [Compound 64, N-benzyl-6-ethylthieno[2,3-d]pyrimidin-4-amine] gave a melting point of 133 °C.

In the case of `COc1ccc(CNc2nc(C)nc3sc(C)cc23)cc1` [Compound 8, N-(4-methoxybenzyl)-2,6-dimethylthieno[2,3-d]pyrimidin-4-amine], the melting point turned out to be 127.5 °C.

Compound `CCc1cc2c(NC(C)c3ccccc3)ncnc2s1` (centres unmarked) had a melting point of 141 °C.

Take `Cc1nc(NCCc2ccccc2)c2ccsc2n1` [Compound 1, 2-methyl-N-phenethylthieno[2,3-d]pyrimidin-4-amine]: the melting point came out at 111 °C.

`Cc1nc(NCC(O)c2ccccc2)c2cc(C)sc2n1` (centres unmarked) [Compound 53, 2-(2,6-dimethylthieno[2,3-d]pyrimidin-4-ylamino)-1-phenylethanol] gave a melting point of 117 °C.

`Cc1nc(NCc2cccc(Cl)c2)c2cc(C)sc2n1` [Compound 10, N-(3-chlorobenzyl)-2,6-dimethylthieno[2,3-d]pyrimidin-4-amine] registered a melting point of 136.5 °C.

On to `CCc1cc2c(NCCc3ccc(OC)c(OC)c3)ncnc2s1` [Compound 72, N-(3,4-dimethoxyphenethyl)-6-ethylthieno[2,3-d]pyrimidin-4-amine], for which the melting point was determined as 124 °C.

For `COc1cccc(CCNc2nc(C)nc3sc(C)cc23)c1` [Compound 25, N-(3-methoxyphenethyl)-2,6-dimethylthieno[2,3-d]pyrimidin-4-amine], the melting point came out at 139 °C.

Consider `COc1ccc(CCCNc2nc(C)nc3sc(C)cc23)cc1` [Compound 56, N-(3-(4-methoxyphenyl)propyl)-2,6-dimethylthieno[2,3-d]pyrimidin-4-amine], for which the melting point was found to be 120 °C.

`CCc1nc(NCCc2ccc(OC)cc2)c2cc(C)sc2n1` [Compound 29, N-(4-methoxyphenethyl)-2-ethyl-6-methylthieno[2,3-d]pyrimidin-4-amine] gave a melting point of 82 °C.

In the case of `Cc1nc(NCCc2cccs2)c2cc(C)sc2n1` [Compound 50, 2,6-dimethyl-N-(2-(thiophen-2-yl)ethyl)thieno[2,3-d]pyrimidin-4-amine], the melting point fell in the range of 102.5 to 103.7 °C.

On to `CCCc1cc2c(NCCc3ccc(O)cc3)nc(OC)nc2s1` [Compound 83, 4-(2-(2-methoxy-6-propylthieno[2,3-d]pyrimidin-4-ylamino)ethyl)phenol], for which the melting point amounted to 79 °C.

On to `CCCc1cc2c(NCCc3ccc(OCc4nnn[nH]4)cc3)nc(OC)nc2s1` [Compound 88, N-(4-((1H-tetrazol-5-yl)methoxy)phenethyl)-2-methoxy-6-propylthieno[2,3-d]pyrimidin-4-amine], for which the melting point was found to be 181 °C.

`Cc1nc(NCC(C)c2ccccc2)c2cc(C)sc2n1` (centres unmarked) [Compound 52, 2,6-dimethyl-N-(2-phenylpropyl)thieno[2,3-d]pyrimidin-4-amine] returned a melting point of 94 °C.

In the case of `COc1ccc(CNc2nc(C)nc3sc(C)cc23)cc1OC` [Compound 9, N-(3,4-dimethoxybenzyl)-2,6-dimethylthieno[2,3-d]pyrimidin-4-amine], the melting point came to 142 °C.

`CCc1nc(NCc2cccc(OC)c2)c2cc(C)sc2n1` [Compound 7, N-(3-methoxybenzyl)-2-ethyl-6-methylthieno[2,3-d]pyrimidin-4-amine] showed a melting point of 108.4 °C.

Compound `CCc1ccc(CCNc2nc(C)nc3sc(C)cc23)cc1` [Compound 20, N-(4-ethylphenethyl)-2,6-dimethylthieno[2,3-d]pyrimidin-4-amine] came in with a melting point of 62 °C.

Take `COc1cccc(CCCNc2nc(C)nc3sc(C)cc23)c1` [Compound 55, N-(3-(3-methoxyphenyl)propyl)-2,6-dimethylthieno[2,3-d]pyrimidin-4-amine]: the melting point turned out to be 122 °C.

`CCCCc1cc2c(NCCc3ccccc3)ncnc2s1` [Compound 94, 6-butyl-N-phenethylthieno[2,3-d]pyrimidin-4-amine] returned a melting point of 95 °C.

In turn, `Cc1nc(NCCc2ccccc2)c2cc(C)sc2n1` [Compound 13, 2,6-dimethyl-N-phenethylthieno[2,3-d]pyrimidin-4-amine] displayed a melting point of 106 °C.

Regarding `COc1cc(CCNc2nc(C)nc3sc(C)cc23)cc(OC)c1` [Compound 35, N-(3,5-dimethoxyphenethyl)-2,6-dimethylthieno[2,3-d]pyrimidin-4-amine], the melting point is 106 to 107 °C.

Turning to `CCc1cc2c(NCCc3ccc(OC)cc3)ncnc2s1` [Compound 70, N-(4-methoxyphenethyl)-6-ethylthieno[2,3-d]pyrimidin-4-amine], the melting point stood at 133 °C.

Compound `CCc1cc2c(NCCc3ccc(OC)cc3)nc(C)nc2s1` [Compound 71, N-(4-methoxyphenethyl)-6-ethyl-2-methylthieno[2,3-d]pyrimidin-4-amine] displayed a melting point of 102 °C.

The compound `Cc1nc(NCCOc2ccccc2)c2cc(C)sc2n1` [Compound 47, 2,6-dimethyl-N-(2-phenoxyethyl)thieno[2,3-d]pyrimidin-4-amine] registered a melting point of 156.5 °C.

For the compound `Cc1nc(NCCc2ccccn2)c2cc(C)sc2n1` [Compound 48, 2,6-dimethyl-N-(2-(pyridin-2-yl)ethyl)thieno[2,3-d]pyrimidin-4-amine], the melting point is 139 °C.

For `Cc1cc2c(NCCc3ccccc3)nc(Cl)nc2s1` [Compound 14, 2-chloro-6-methyl-N-phenethylthieno[2,3-d]pyrimidin-4-amine], the melting point came out at 119 °C.

In the case of `Cc1nc(NCCc2ccc(O)cc2)c2cc(C)sc2n1` [Compound 23, 4-(2-(2,6-dimethylthieno[2,3-d]pyrimidin-4-ylamino)ethyl)phenol], the melting point was determined as 166 °C.

Take `Cc1cc2c(NCCc3ccccc3)nc(N(C)C)nc2s1` [Compound 16, N2,N2,6-trimethyl-N4-phenethylthieno[2,3-d]pyrimidine-2,4-diamine]: the melting point came out at 142 °C.

For the compound `CCc1cc2c(NCCc3cccc(OC)c3)ncnc2s1` [Compound 69, N-(3-methoxyphenethyl)-6-ethylthieno[2,3-d]pyrimidin-4-amine], the melting point was 81 °C.

Take `CCCc1cc2c(NCCc3ccc(O)cc3)nc(Cl)nc2s1` [Compound 84, 4-(2-(2-chloro-6-propylthieno[2,3-d]pyrimidin-4-ylamino)ethyl)phenol]: the melting point is 135 °C.

As to `CCc1cc2c(NCc3cccc(OC)c3)ncnc2s1` [Compound 65, N-(3-methoxybenzyl)-6-ethylthieno[2,3-d]pyrimidin-4-amine], the melting point is 99 °C.

As to `CC(C)c1cc2c(NCCc3ccccc3)ncnc2s1` [Compound 92, 6-isopropyl-N-phenethylthieno[2,3-d]pyrimidin-4-amine], the melting point is 117.5 °C.

As to `Cc1nc(NCCCCc2ccccc2)c2cc(C)sc2n1` [Compound 54, 2,6-dimethyl-N-(4-phenylbutyl)thieno[2,3-d]pyrimidin-4-amine], the melting point is 108 °C.

In turn, `CCCc1cc2c(NCc3cccc(OC)c3)ncnc2s1` [Compound 77, N-(3-methoxybenzyl)-6-propylthieno[2,3-d]pyrimidin-4-amine] had a melting point of 118 °C.

With `Cc1nc(NCCc2cccc(O)c2)c2cc(C)sc2n1` [Compound 22, N-(3-hydroxyphenethyl)-2,6-dimethylthieno[2,3-d]pyrimidin-4-amine], the melting point amounted to 162.5 °C.
